The test system of assay [1] is Streptococcus pneumoniae G9a. It is filed as cell-based. As to the method:
(§1) Determination of the Minimum Inhibitory Concentration (MIC): The MIC is determined in the liquid dilution test in accordance with the NCCLS guidelines. Overnight cultures of Staphylococcus aureus 133, Entercococcus faecalis 27159, E. faecium 4147 and Streptococcus pneumoniae G9a are incubated with the described test substances in a 1:2 dilution series. The MIC determination is carried out with a cell count of 10^5 microorganisms per ml in Isosensitest medium (Difco, Irvine/USA), with the exception of S. pneumoniae, which is tested in BHI broth (Difco, Irvine/USA) with 10% bovine serum at a cell count of 10^6 microorganisms per ml. The cultures are incubated at 37° C. for 18-24 hours, S. pneumoniae in the presence of 10% CO2. The lowest substance concentration in each case at which no visible bacterial growth occurs any more is defined as the MIC. The MIC values are reported in μg/ml.

Assay [2] deals with Staphylococcus aureus 133. It is filed as cell-based. As to the method:
as §1

A further assay has as its system E. faecalis ICB 27159. The assay is classed as cell-based, Enterococcus faecalis. As to the method: as §1

Starred links: 1 amine or outer side, 2 acyl side, 3 side chain; linkers in the order of their positions; H or OH if unused. Positions of bridges follow the written chain, without caps; N, C: chain ends. Non-standard residues stand in square brackets, D forms with d. Residues, ends and D or L forms follow the SMILES beside them. Phe(3R-OH) = O=C([C@@H](N[*:1])[C@H](O[*:3])c1ccccc1)[*:2]; X1 = CC1CC(C)NC(NCCC[C@@H](N[*:1])C(=O)[*:2])=N1; Asn(3S-OH) = NC(=O)[C@@H](O)[C@H](N)C(=O)O; Leu(3R-OH) = CC(C)[C@@H](O)[C@H](N)C(=O)O; aThr = C[C@H](O)[C@H](N)C(=O)O

In the case of `CC[C@H](C)[C@@H]1NC(=O)[C@@H](CCCNC2=NC(C)CC(C)N2)NC(=O)[C@H](CC(C)C)NC(=O)[C@H]([C@H](O)C(C)C)NC(=O)[C@@H](NC(=O)[C@H](CC(C)C)NC(=O)[C@H](N)CC(C)C)[C@@H](c2ccccc2)OC(=O)[C@H](CO)NC(=O)[C@H]([C@H](O)C(N)=O)NC(=O)CNC(=O)[C@H]([C@H](C)O)NC1=O.O=C(O)C(F)(F)F.O=C(O)C(F)(F)F` (stereo partly drawn) [Example 3, N^ω.6,N^ω′.6-(Pentane[2,4]diyl)lysobactin] (H-[dL]L[Phe(3R-OH)][Leu(3R-OH)]L[X1]I[aThr]G[Asn(3S-OH)]S; ester 3-C), the “MIC S. pneumoniae” value in assay [1] came out at 0.5 µg/mL. The “MIC S. aureus 133” value in assay [2] was 0.5 µg/mL. For the same molecule, the “MIC E. faecalis ICB 27159” value against E. faecalis ICB 27159 is 2 µg/mL.

For the origin of these results see patent publication US20080051424A1, “Heterocyclyl-substituted nonadepsipeptides” (priority 2004, published 2008).
